Experimental data as given in patent US11180462B2, “Microbiocidal oxadiazole derivatives” (SYNGENTA PARTICIPATIONS AG, priority 2015, dated 2021).

What was measured:
Phakopsora Pachyrhizi = assay: Fungicidal activity against Phakopsora pachyrhizi / soybean / leaf disc preventative (Asian soybean rust); format: in vivo; settings: foliar, 200 ppm in the applied formulation, soybean leaf disks, compared to untreated control leaf disks, read-out: disease control
Outline: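 Preventative soybean leaf-disc test: discs on water agar sprayed with diluted formulated compound, inoculated one day later with spores on the lower surface. Held 24–36 h dark at 20°C, 75% rh, then 12 h light/day; percent disease control versus untreated discs scored 12–14 days after application.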

[1] = system: Puccinia recondita f. Sp. Tritici; assay: Fungicidal activity against Puccinia recondita f. sp. tritici / wheat / leaf disc preventative (brown rust); format: in vivo; settings: foliar, 200 ppm in the applied formulation, wheat leaf segments, preventative, compared to untreated control leaf disks, read-out: disease control
Outline: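 Preventative leaf-segment test, wheat cv. Kanzler on water agar. Spray compound at 200 ppm, inoculate with spores 1 day later; 19° C., 75% rh, 12/12 h light. Read-out: % disease control vs untreated, 7 to 9 days after application.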

[2] = system: Glomerella lagenarium (Colletotrichum lagenarium); assay: Fungicidal activity against Glomerella lagenarium (Colletotrichum lagenarium) liquid culture / cucumber / preventative (anthracnose); format: cell-based; settings: Colletotrichum orbiculare; 20 ppm in the applied formulation; liquid culture (PDB), growth inhibition measured photometrically after 3 to 4 days; compared to untreated control; read-out: disease control
Outline: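 Photometric read-out of fungal growth after 2–7 days, expressed as percent antifungal activity versus untreated check. Cryo-stored conidia in PDB; compound at 20 ppm; dark, 24 °C, 96% RH.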

CC(C)CC(=O)N(Cc1ccc(-c2noc(C(F)(F)F)n2)cc1)CC1CC1 [Compound 1.218, N-(cyclopropylmethyl)-3-methyl-N-[[4-[5-(trifluoromethyl)-1,2,4-oxadiazol-3-yl]phenyl]methyl]-butanamide]
≥ 80%: pest or weed control at 200 ppm (Phakopsora Pachyrhizi) | pest or weed control at 200 ppm [1] | inhibition of growth at 20 ppm [2]

O=C(OCCN(Cc1ccc(-c2noc(C(F)(F)F)n2)cc1)C(=O)C1CCC1)C1CCC1 [Compound 1.715, 2-[cyclobulanecarbonyl-[[4-[5-(trifluoromethyl)-1,2,4-oxadiazol-3-yl]phenyl]methyl]-amino]ethyl cyclobutane-carboxylate]
≥ 80%: pest or weed control at 200 ppm (Phakopsora Pachyrhizi) | pest or weed control at 200 ppm [1] | inhibition of growth at 20 ppm [2]

CCON(Cc1ccc(-c2noc(C(F)(F)F)n2)cc1)C(=O)C1CCC1 [Compound 1.619, N-ethoxy-N-[[4-[5-(trifluoromethyl)-1,2,4-oxadiazol-3-yl]phenyl]methyl]-cyclobutane-carboxamide]
≥ 80%: pest or weed control at 200 ppm (Phakopsora Pachyrhizi) | pest or weed control at 200 ppm [1] | inhibition of growth at 20 ppm [2]

CON(Cc1ccc(-c2noc(C(F)(F)F)n2)cc1)C(=O)NC1CCCCC1 [Compound 3.11, 3-cyclohexyl-1-methoxy-1-[[4-[5-(trifluoromethyl)-1,2,4-oxadiazol-3-yl]phenyl]methyl]urea]
≥ 80%: pest or weed control at 200 ppm (Phakopsora Pachyrhizi) | pest or weed control at 200 ppm [1] | inhibition of growth at 20 ppm [2]

O=C(C1CCCC1)N(Cc1ccc(-c2noc(C(F)(F)F)n2)cc1)CC1CC1 [Compound 1.212, N-(cyclopropylmethyl)-N-[[4-[5-(trifluoromethyl)-1,2,4-oxadiazol-3-yl]phenyl]methyl]-cyclopentane-carboxamide]
≥ 80%: pest or weed control at 200 ppm (Phakopsora Pachyrhizi) | pest or weed control at 200 ppm [1] | inhibition of growth at 20 ppm [2]

CCON(Cc1ccc(-c2noc(C(F)(F)F)n2)cc1)C(=O)CC#N [Compound 1.627, 2-cyano-N-ethoxy-N-[[4-[5-(trifluoromethyl)-1,2,4-oxadiazol-3-yl)phenyl]methyl]-acetamide]
≥ 80%: pest or weed control at 200 ppm (Phakopsora Pachyrhizi) | pest or weed control at 200 ppm [1] | inhibition of growth at 20 ppm [2]

O=C(C1CCC1)N(Cc1ccc(-c2noc(C(F)(F)F)n2)cc1)CC1CC1 [Compound 1.221, N-(cyclopropylmethyl)-N-[[4-[5-(trifluoromethyl)-1,2,4-oxadiazol-3-yl]phenyl]methyl]-cyctobutane-carboxamide]
≥ 80%: pest or weed control at 200 ppm (Phakopsora Pachyrhizi) | pest or weed control at 200 ppm [1] | inhibition of growth at 20 ppm [2]

CC=CCC(=O)N(Cc1ccc(-c2noc(C(F)(F)F)n2)cc1)CC1CC1 [Compound 1.222, N-(cyclopropylmethyl)-N-[[4-[5-(trifluoromethyl)-1,2,4-oxadiazol-3-yl]phenyl]methyl]-pent-3-enamide]
≥ 80%: pest or weed control at 200 ppm (Phakopsora Pachyrhizi) | pest or weed control at 200 ppm [1] | inhibition of growth at 20 ppm [2]

CON(Cc1ccc(-c2noc(C(F)(F)F)n2)cc1)C(=O)N(C)C#N [Compound 3.62, 1-cyano-3-methoxy-1-methyl-3-[[4-[5-(trifluoromethyl)-1,2,4-oxadiazol-3-yl]phenyl]methyl]urea]
≥ 80%: pest or weed control at 200 ppm (Phakopsora Pachyrhizi) | pest or weed control at 200 ppm [1] | inhibition of growth at 20 ppm [2]

C#CCOc1ccc(C(=O)N(Cc2ccc(-c3noc(C(F)(F)F)n3)cc2)OC)cc1F [Compound 1.51, 3-fluoro-N-methoxy-4-prop-2-ynoxy-N-[[4-[5-(trifluoromethy)-1,2,4-oxadiazol-3-yl]phenyl]methyl]-benzamide]
≥ 80%: pest or weed control at 200 ppm (Phakopsora Pachyrhizi) | pest or weed control at 200 ppm [1] | inhibition of growth at 20 ppm [2]

CC(=O)CC(C)C(=O)N(Cc1ccc(-c2noc(C(F)(F)F)n2)cc1)CC1CC1 (stereo not drawn) [Compound 1.209, N-(cyclopropylmethyl)-2-methyl-4-oxo-N-[[4-[5-(trifluoromethyl)-1,2,4-oxadiazol-3-yl]phenyl)methyl]-pentanamide]
≥ 80%: pest or weed control at 200 ppm (Phakopsora Pachyrhizi) | pest or weed control at 200 ppm [1] | inhibition of growth at 20 ppm [2]

O=C(CC1CC1)OCCN(Cc1ccc(-c2noc(C(F)(F)F)n2)cc1)C(=O)CC1CC1 [Compound 1.737, 2-[(2-cyclopropylacetyl)-[[4-[5-(trifluoromethyl)-1,2,4-oxadiazol-3-yl]phenyl]methyl]-amino]ethyl 2-cyclopropylacetate]
≥ 80%: pest or weed control at 200 ppm (Phakopsora Pachyrhizi) | pest or weed control at 200 ppm [1] | inhibition of growth at 20 ppm [2]

COCCN(Cc1ccc(-c2noc(C(F)(F)F)n2)cc1)C(=O)CC(C)(C)C [Compound 1.342, N-(2-methoxyethyl)-3,3-dimethyl-N-[[4-[5-(trifluoromethyl)-1,2,4-oxadiazol-3-yl]phenyl]methyl]-butanamide]
≥ 80%: pest or weed control at 200 ppm (Phakopsora Pachyrhizi) | pest or weed control at 200 ppm [1] | inhibition of growth at 20 ppm [2]

CCCCON(Cc1ccc(-c2noc(C(F)(F)F)n2)cc1)C(=O)C(C)OC (stereo not drawn) [Compound 1.647, N-butoxy-2-methoxy-N-[[4-[5-(trifluoromethyl)-1,2,4-oxadiazol-3-yl]phenyl]methyl]-propanamide]
≥ 80%: pest or weed control at 200 ppm (Phakopsora Pachyrhizi) | pest or weed control at 200 ppm [1] | inhibition of growth at 20 ppm [2]

CC(C)(C)OC(=O)ON(Cc1ccc(-c2noc(C(F)(F)F)n2)cc1)C(=O)OC(C)(C)C [Compound 2.21, [tert-butoxycarbonyl-[[4-[5-(trifluoromethyl)-1,2,4-oxadiazol-3-yl]phenyl]methyl]-amino]tert-butyl carbonate]
≥ 80%: pest or weed control at 200 ppm (Phakopsora Pachyrhizi) | pest or weed control at 200 ppm [1] | inhibition of growth at 20 ppm [2]

CON(Cc1ccc(-c2noc(C(F)(F)F)n2)cc1)C(=O)C1(C)CCCCC1 [Compound 1.33, N-methoxy-1-methyl-N-[[4-[5-(trifluoromethyl)-1,2,4-oxadiazol-3-yl]phenyl]methyl]-cyclohexane-carboxamide]
≥ 80%: pest or weed control at 200 ppm (Phakopsora Pachyrhizi) | pest or weed control at 200 ppm [1] | inhibition of growth at 20 ppm [2]

CCCCON(Cc1ccc(-c2noc(C(F)(F)F)n2)cc1)C(=O)C1CCOC1 (stereo not drawn) [Compound 1.636, N-butoxy-N-[[4-[5-(trifluoromethyl)-1,2,4-oxadiazol-3-yl]phenyl]methyl]-tetrahydrofuran-3-carboxamide]
≥ 80%: pest or weed control at 200 ppm (Phakopsora Pachyrhizi) | pest or weed control at 200 ppm [1] | inhibition of growth at 20 ppm [2]

COCC(=O)OCCN(Cc1ccc(-c2noc(C(F)(F)F)n2)cc1)C(=O)COC [Compound 1.716, 2-[(2-methoxy-acetyl)-[[4-[5-(trifluoromethyl)-1,2,4-oxadiazol-3-yl]phenyl]methyl]-amino]ethyl 2-methoxyacetate]
≥ 80%: pest or weed control at 200 ppm (Phakopsora Pachyrhizi) | pest or weed control at 200 ppm [1] | inhibition of growth at 20 ppm [2]

C#CCN(Cc1ccc(-c2noc(C(F)(F)F)n2)cc1)C(=O)Cc1ccc(C#N)cc1 [Compound 1.193, 2-(4-cyanophenyl)-N-prop-2-ynyl-N-[[4-[5-(trifluoromethyl)-1,2,4-oxadiazol-3-yl]phenyl]methyl]-acetamide]
≥ 80%: pest or weed control at 200 ppm (Phakopsora Pachyrhizi) | pest or weed control at 200 ppm [1] | inhibition of growth at 20 ppm [2]

O=C(C1CCCCC1)N(Cc1ccc(-c2noc(C(F)(F)F)n2)cc1)C1CC1 [Compound 1.90, N-cyclopropyl-N-[[4-[5-(trifluoromethyl)-1,2,4-oxadiazol-3-yl]phenyl]methyl]-cyclohexane-carboxamide]
≥ 80%: pest or weed control at 200 ppm (Phakopsora Pachyrhizi) | pest or weed control at 200 ppm [1] | inhibition of growth at 20 ppm [2]

O=C(CC(F)(F)F)OCCN(Cc1ccc(-c2noc(C(F)(F)F)n2)cc1)C(=O)CC(F)(F)F [Compound 1.734, 2-[[4-[5-(trifluoromethyl)-1,2,4-oxadiazol-3-yl]phenyl]methyl-(3,3,3-trifluoropropanoyl)-amino]ethyl 3,3,3-trifluoropropanoate]
≥ 80%: pest or weed control at 200 ppm (Phakopsora Pachyrhizi) | pest or weed control at 200 ppm [1] | inhibition of growth at 20 ppm [2]

C#CCN(Cc1ccc(-c2noc(C(F)(F)F)n2)cc1)C(=O)C1CCCCC1 [Compound 1.158, N-prop-2-ynyl-N-[[4-[5-(trifluoromethyl)-1,2,4-oxadiazol-3-yl]phenyl]methyl]-cyclohexane-carboxamide]
≥ 80%: pest or weed control at 200 ppm (Phakopsora Pachyrhizi) | pest or weed control at 200 ppm [1] | inhibition of growth at 20 ppm [2]
